Data set [1] relates to bacteria in the mouth. Particulars: cited from earlier work.
A short description of data set [2]: Residual APM in chewing gum on standing at 32° C. Type of data set: physicochemical. The conditions noted are these: calcium carbonate in the chewing gum base.
The conditions of data set [3]: cited from earlier work.
The nature of data set [4]: Cold water solubility test (time to dissolve). In kind it is physicochemical. The conditions noted are these: 15 g/100 ml of water, 10° C., magnetic stirrer (3 turns/sec). An excerpt:
A magnetic stirrer (3 turns/sec) was used to agitate each sample.

The structures appear in SMILES notation. Where a SMILES comes first, the peptide text is derived from it.

We go through 2 compounds from patent publication US4556565A, “Sweetener composition, process for making the same, and comestibles comprising said sweetener composition” (priority 1983, dated 1985).

With `COC(=O)[C@H](Cc1ccccc1)NC(=O)[C@@H](N)CC(=O)O` [APM, L-aspartyl-L-phenylalanine methyl ester] (H-Asp-Phe-OMe), the “Dental caries causing effect / bacterial action in the mouth” value in data set [1] is reported as “low dental caries causing effect”. In data set [2], the “Stability of APM in chewing gum containing calcium carbonate” value is listed as “rapidly decomposed by calcium carbonate”. Also, in data set [3], the “Dispersibility or solubility in water” value is given as “low dispersibility or solubility in water”. The “Cold water solubility of sweetener compositions” value in data set [4] worked out at 900 s.
For `OC[C@@H](O)[C@@H](O[C@H]1O[C@H](CO)[C@@H](O)[C@H](O)[C@H]1O)[C@H](O)[C@@H](O)CO` [hydrogenated maltose], in data set [1], the “Dental caries causing effect / bacterial action in the mouth” value is reported as “not subjected to the bacterial action in the mouth”.
